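Cells were grown in 96-well plates and exposed to each compound for 48 hours at five concentrations; endpoints were interpolated linearly between bracketing concentrations, or set to the highest concentration if not reached. At the GI50, growth is halved. Definition used: TGI = concentration required for complete inhibition of growth.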
How the values were obtained:
Assay in all cases: DTP human tumour cell line panel, 48 h
[1] = system: SR leukemia
[2] = system: NCI-H522 lung
[3] = system: TK-10 renal
[4] = system: 786-0 renal
[5] = system: SNB-75 CNS
[6] = system: MDA-MB-435
[7] = system: CAKI-1 renal
[8] = system: UACC-62 melanoma
[9] = system: SN12C renal
[10] = system: HL-60(TB) leukemia
[11] = system: HT29 colon
[12] = system: RXF 393 renal
[13] = system: HOP-62 NSCLC
[14] = system: SK-MEL-2 melanoma
[15] = system: A498 renal
[16] = system: IGROV1 ovarian
[17] = system: DU-145 prostate
[18] = system: NCI-H460 lung
[19] = system: SF-268 CNS
[20] = system: K-562 leukemia
[21] = system: M14 melanoma
[22] = system: OVCAR-8 ovarian
[23] = system: CCRF-CEM leukemia
[24] = system: HOP-92 NSCLC
[25] = system: NCI-H23 lung
[26] = system: UO-31 renal
[27] = system: HCC-2998 colon
[28] = system: SF-539 CNS
[29] = system: KM12 colon

CCN(C(=O)N1CCN(c2cc3c(cc2F)c(=O)c(C(=O)O)cn3C2CC2)CC1)c1nc(-c2ccc(Cl)cc2)cs1
GI50 [1]: 272 nM | TGI [1]: 897 nM | GI50 [2]: 1800 nM | TGI [2]: > 26.5 µM | GI50 [3]: 2890 nM | TGI [3]: > 51.9 µM | GI50 [4]: 2410 nM | TGI [4]: 15.4 µM | GI50 [5]: 1370 nM | TGI [5]: 9.32 µM | GI50 [6]: 1210 nM | TGI [6]: 7.03 µM | GI50 [7]: 2170 nM | TGI [7]: 11.4 µM | GI50 [8]: 1130 nM | TGI [8]: 3.55 µM | GI50 [9]: 991 nM | TGI [9]: > 100 µM | GI50 [10]: 669 nM | TGI [10]: 1770 nM | GI50 [11]: 1060 nM | TGI [11]: > 100 µM | GI50 [12]: 978 nM | TGI [12]: 7.51 µM | GI50 [13]: 1600 nM | TGI [13]: 17.7 µM | GI50 [14]: 2120 nM | TGI [14]: 5.39 µM | GI50 [15]: 29.8 nM | TGI [15]: 1600 nM | GI50 [16]: 538 nM | TGI [16]: 1790 nM | GI50 [17]: 1830 nM | TGI [17]: > 100 µM | GI50 [18]: 960 nM | TGI [18]: > 100 µM | GI50 [19]: 1280 nM | TGI [19]: > 100 µM | GI50 [20]: 1130 nM | TGI [20]: > 100 µM | GI50 [21]: 2120 nM | TGI [21]: > 100 µM | GI50 [22]: 1310 nM | TGI [22]: > 100 µM | GI50 [23]: 2450 nM | TGI [23]: > 100 µM | GI50 [24]: 825 nM | TGI [24]: 4.8 µM | GI50 [25]: 1560 nM | TGI [25]: 8.45 µM | GI50 [26]: 986 nM | TGI [26]: > 20.5 µM | GI50 [27]: 2830 nM | TGI [27]: > 28.6 µM | GI50 [28]: 1020 nM | TGI [28]: 3.74 µM | GI50 [29]: 1290 nM | TGI [29]: > 100 µM

Reference: PubChem BioAssay (NCI)
